Test results: ChEMBL document CHEMBL5678809, “Preclinical characterization of GLPG0634, a selective inhibitor of JAK1, for the treatment of inflammatory diseases” (J Immunol, 2013)
The source made the active and inactive calls. The rule behind the calls is not given here.

Legend:
[1] = molecular target: Activated CDC42 kinase 1 (Homo sapiens) (UniProt Q07912); experiment: Inhibition of ACK1 (unknown origin) at 1 uM relative to control
[2] = molecular target: Serine/threonine-protein kinase BRSK1 (Homo sapiens) (UniProt Q8TDC3); experiment: Inhibition of BrSK1 (unknown origin) at 1 uM relative to control
[3] = molecular target: Proto-oncogene tyrosine-protein kinase Src (Homo sapiens) (UniProt P12931); experiment: Inhibition of SRC (unknown origin) at 1 uM relative to control
[4] = molecular target: Serine/threonine-protein kinase 17A (Homo sapiens) (UniProt Q9UEE5); experiment: Inhibition of DRAK1 (unknown origin) at 1 uM relative to control
[5] = molecular target: Ephrin type-A receptor 8 (Homo sapiens) (UniProt P29322); experiment: Inhibition of EphA8 (unknown origin) at 1 uM relative to control
[6] = molecular target: Receptor tyrosine-protein kinase erbB-4 (Homo sapiens) (UniProt Q15303); experiment: Inhibition of ErbB4 (unknown origin) at 1 uM relative to control
[7] = molecular target: Tyrosine-protein kinase Fgr (Homo sapiens) (UniProt P09769); experiment: Inhibition of Fgr (unknown origin) at 1 uM relative to control
[8] = molecular target: Receptor-type tyrosine-protein kinase FLT3 (Homo sapiens, UniProt P36888); experiment: Inhibition of Flt3 (unknown origin)
[9] = molecular target: Vascular endothelial growth factor receptor 3 (Homo sapiens, UniProt P35916); experiment: Inhibition of Flt4 (unknown origin)
[10] = molecular target: Macrophage colony-stimulating factor 1 receptor (Homo sapiens, UniProt P07333); experiment: Inhibition of FMS (unknown origin)
[11] = molecular target: Tyrosine-protein kinase Fyn (Homo sapiens) (UniProt P06241); experiment: Inhibition of Fyn (unknown origin) at 1 uM relative to control
[12] = molecular target: Mitogen-activated protein kinase kinase kinase kinase 2 (Homo sapiens, UniProt Q12851); experiment: Inhibition of GCK (unknown origin)
[13] = molecular target: Mitogen-activated protein kinase kinase kinase 3 (Homo sapiens, UniProt Q99759); experiment: Inhibition of MAP3K3 (unknown origin)
[14] = molecular target: Mitogen-activated protein kinase 12 (Homo sapiens, UniProt P53778); experiment: Inhibition of MAPK12 (unknown origin)
[15] = molecular target: Serine/threonine-protein kinase MARK1 (Homo sapiens) (UniProt Q9P0L2); experiment: Inhibition of MARK1 (unknown origin) at 1 uM relative to control
[16] = molecular target: Dual specificity mitogen-activated protein kinase kinase 7 (Homo sapiens) (UniProt O14733); experiment: Inhibition of MKK7 (unknown origin) at 1 uM relative to control
[17] = molecular target: Ribosomal protein S6 kinase alpha-5 (Homo sapiens) (UniProt O75582); experiment: Inhibition of MSK1 (unknown origin) at 1 uM relative to control
[18] = molecular target: FKBP12A/mTOR (Homo sapiens) (UniProt P62942+P42345); experiment: Inhibition of mTOR/FKBP12 (unknown origin) at 1 uM relative to control; assay type: protein-complex assay
[19] = molecular target: Serine/threonine-protein kinase MARK2 (Homo sapiens) (UniProt Q7KZI7); experiment: Inhibition of PAR-1B (unknown origin) at 1 uM relative to control
[20] = molecular target: PAS domain-containing serine/threonine-protein kinase (Homo sapiens) (UniProt Q96RG2); experiment: Inhibition of PASK (unknown origin) at 1 uM relative to control
[21] = molecular target: Serine/threonine-protein kinase pim-2 (Homo sapiens) (UniProt Q9P1W9); experiment: Inhibition of Pim-2 (unknown origin) at 1 uM relative to control
[22] = molecular target: Serine/threonine-protein kinase D1 (Homo sapiens) (UniProt Q15139); experiment: Inhibition of PKC-mu (unknown origin) at 1 uM relative to control
[23] = molecular target: Proto-oncogene tyrosine-protein kinase receptor Ret (Homo sapiens) (UniProt P07949); experiment: Inhibition of Ret (unknown origin) at 1 uM relative to control
[24] = molecular target: Rho-associated protein kinase 1 (Homo sapiens, UniProt Q13464); experiment: Inhibition of ROCK1 (unknown origin)
[25] = molecular target: Proto-oncogene tyrosine-protein kinase ROS (Homo sapiens) (UniProt P08922); experiment: Inhibition of Ros (unknown origin) at 1 uM relative to control
[26] = molecular target: Mitogen-activated protein kinase 13 (Homo sapiens) (UniProt O15264); experiment: Inhibition of SAPK4 (unknown origin) at 1 uM relative to control
[27] = molecular target: Serine/threonine-protein kinase PLK2 (Homo sapiens) (UniProt Q9NYY3); experiment: Inhibition of Snk (unknown origin) at 1 uM relative to control
[28] = molecular target: Serine/threonine-protein kinase 33 (Homo sapiens) (UniProt Q9BYT3); experiment: Inhibition of STK33 (unknown origin) at 1 uM relative to control
[29] = molecular target: Serine/threonine-protein kinase TBK1 (Homo sapiens, UniProt Q9UHD2); experiment: Inhibition of TBK1 (unknown origin)
[30] = molecular target: Testis-specific serine/threonine-protein kinase 1 (Homo sapiens) (UniProt Q9BXA7); experiment: Inhibition of TSSK1 (unknown origin) at 1 uM relative to control
[31] = AUC (0 to 24 hrs) in CD-1 mouse at 5 mg/kg, po measured upto 24 hrs by LC-MS analysis; assay type: ADME, organism-based; conditions: in vivo
[32] = AUC (0 to 24 hrs) in Sprague-Dawley rat at 1 mg/kg, iv measured upto 8 hrs by LC-MS analysis; assay type: ADME, organism-based; conditions: in vivo
[33] = Volume of distribution at steady state in Sprague-Dawley rat at 1 mg/kg, iv measured upto 8 hrs by LC-MS analysis; assay type: ADME, organism-based; conditions: in vivo, read-out: Vdss
Rattus norvegicus = experiment: In vivo inhibition of JAK1 in Sprague-Dawley rat assessed as reduction in MX2 mRNA level at 1 to 10 mg/kg, po measured for 24 hrs by RT-PCR analysis; assay type: functional, organism-based; conditions: dose 1-10 mg/kg
[34] = Half life in Dark Agouti rat at 3 to 30 mg/kg, po; assay type: ADME, organism-based; conditions: in vivo, dose 3-30 mg/kg
Mus musculus [35] = experiment: Antiarthritic activity against collagen-induced arthritis DBA/1J mouse model assessed as reduction in infiltration of CD3 positive T cells in paw at 50 mg/kg, po administered twice daily for 14 days by immunohistochemistry analysis; assay type: functional, organism-based; conditions: T-cell, time 14.0 day
Mus musculus [36] = experiment: Antiarthritic activity against collagen-induced arthritis DBA/1J mouse model assessed as reduction in infiltration of F4/80+ macrophage cells in paw at 50 mg/kg, po administered twice daily for 14 days by immunohistochemistry analysis; assay type: functional, organism-based; conditions: time 14.0 day
Mus musculus [37] = experiment: Antiarthritic activity against collagen-induced arthritis DBA/1J mouse model assessed as reduction in Mx1 expression in paw at 50 mg/kg, po measured for 2 weeks by RT-PCR analysis; assay type: functional, organism-based
Mus musculus [38] = experiment: Antiarthritic activity against collagen-induced arthritis DBA/1J mouse model assessed as IL-1alpha level in serum at 50 mg/kg, po measured for 4 hrs by luminex analysis (reference value: 359 +/- 83.8 ng/ml); assay type: functional

Sequence of Mitogen-activated protein kinase 13 (Homo sapiens) (O15264 whole entry): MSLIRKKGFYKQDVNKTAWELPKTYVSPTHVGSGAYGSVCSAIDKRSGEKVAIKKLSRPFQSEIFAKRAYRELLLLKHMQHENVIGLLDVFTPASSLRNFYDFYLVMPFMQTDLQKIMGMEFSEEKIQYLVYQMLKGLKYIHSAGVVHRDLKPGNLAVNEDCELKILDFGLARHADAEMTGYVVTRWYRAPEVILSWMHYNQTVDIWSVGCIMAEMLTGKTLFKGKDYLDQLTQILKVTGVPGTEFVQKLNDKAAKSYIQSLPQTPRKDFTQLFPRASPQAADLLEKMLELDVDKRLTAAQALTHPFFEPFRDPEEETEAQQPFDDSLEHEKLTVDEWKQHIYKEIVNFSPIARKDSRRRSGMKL
Sequence of Proto-oncogene tyrosine-protein kinase ROS (Homo sapiens) (P08922 whole entry): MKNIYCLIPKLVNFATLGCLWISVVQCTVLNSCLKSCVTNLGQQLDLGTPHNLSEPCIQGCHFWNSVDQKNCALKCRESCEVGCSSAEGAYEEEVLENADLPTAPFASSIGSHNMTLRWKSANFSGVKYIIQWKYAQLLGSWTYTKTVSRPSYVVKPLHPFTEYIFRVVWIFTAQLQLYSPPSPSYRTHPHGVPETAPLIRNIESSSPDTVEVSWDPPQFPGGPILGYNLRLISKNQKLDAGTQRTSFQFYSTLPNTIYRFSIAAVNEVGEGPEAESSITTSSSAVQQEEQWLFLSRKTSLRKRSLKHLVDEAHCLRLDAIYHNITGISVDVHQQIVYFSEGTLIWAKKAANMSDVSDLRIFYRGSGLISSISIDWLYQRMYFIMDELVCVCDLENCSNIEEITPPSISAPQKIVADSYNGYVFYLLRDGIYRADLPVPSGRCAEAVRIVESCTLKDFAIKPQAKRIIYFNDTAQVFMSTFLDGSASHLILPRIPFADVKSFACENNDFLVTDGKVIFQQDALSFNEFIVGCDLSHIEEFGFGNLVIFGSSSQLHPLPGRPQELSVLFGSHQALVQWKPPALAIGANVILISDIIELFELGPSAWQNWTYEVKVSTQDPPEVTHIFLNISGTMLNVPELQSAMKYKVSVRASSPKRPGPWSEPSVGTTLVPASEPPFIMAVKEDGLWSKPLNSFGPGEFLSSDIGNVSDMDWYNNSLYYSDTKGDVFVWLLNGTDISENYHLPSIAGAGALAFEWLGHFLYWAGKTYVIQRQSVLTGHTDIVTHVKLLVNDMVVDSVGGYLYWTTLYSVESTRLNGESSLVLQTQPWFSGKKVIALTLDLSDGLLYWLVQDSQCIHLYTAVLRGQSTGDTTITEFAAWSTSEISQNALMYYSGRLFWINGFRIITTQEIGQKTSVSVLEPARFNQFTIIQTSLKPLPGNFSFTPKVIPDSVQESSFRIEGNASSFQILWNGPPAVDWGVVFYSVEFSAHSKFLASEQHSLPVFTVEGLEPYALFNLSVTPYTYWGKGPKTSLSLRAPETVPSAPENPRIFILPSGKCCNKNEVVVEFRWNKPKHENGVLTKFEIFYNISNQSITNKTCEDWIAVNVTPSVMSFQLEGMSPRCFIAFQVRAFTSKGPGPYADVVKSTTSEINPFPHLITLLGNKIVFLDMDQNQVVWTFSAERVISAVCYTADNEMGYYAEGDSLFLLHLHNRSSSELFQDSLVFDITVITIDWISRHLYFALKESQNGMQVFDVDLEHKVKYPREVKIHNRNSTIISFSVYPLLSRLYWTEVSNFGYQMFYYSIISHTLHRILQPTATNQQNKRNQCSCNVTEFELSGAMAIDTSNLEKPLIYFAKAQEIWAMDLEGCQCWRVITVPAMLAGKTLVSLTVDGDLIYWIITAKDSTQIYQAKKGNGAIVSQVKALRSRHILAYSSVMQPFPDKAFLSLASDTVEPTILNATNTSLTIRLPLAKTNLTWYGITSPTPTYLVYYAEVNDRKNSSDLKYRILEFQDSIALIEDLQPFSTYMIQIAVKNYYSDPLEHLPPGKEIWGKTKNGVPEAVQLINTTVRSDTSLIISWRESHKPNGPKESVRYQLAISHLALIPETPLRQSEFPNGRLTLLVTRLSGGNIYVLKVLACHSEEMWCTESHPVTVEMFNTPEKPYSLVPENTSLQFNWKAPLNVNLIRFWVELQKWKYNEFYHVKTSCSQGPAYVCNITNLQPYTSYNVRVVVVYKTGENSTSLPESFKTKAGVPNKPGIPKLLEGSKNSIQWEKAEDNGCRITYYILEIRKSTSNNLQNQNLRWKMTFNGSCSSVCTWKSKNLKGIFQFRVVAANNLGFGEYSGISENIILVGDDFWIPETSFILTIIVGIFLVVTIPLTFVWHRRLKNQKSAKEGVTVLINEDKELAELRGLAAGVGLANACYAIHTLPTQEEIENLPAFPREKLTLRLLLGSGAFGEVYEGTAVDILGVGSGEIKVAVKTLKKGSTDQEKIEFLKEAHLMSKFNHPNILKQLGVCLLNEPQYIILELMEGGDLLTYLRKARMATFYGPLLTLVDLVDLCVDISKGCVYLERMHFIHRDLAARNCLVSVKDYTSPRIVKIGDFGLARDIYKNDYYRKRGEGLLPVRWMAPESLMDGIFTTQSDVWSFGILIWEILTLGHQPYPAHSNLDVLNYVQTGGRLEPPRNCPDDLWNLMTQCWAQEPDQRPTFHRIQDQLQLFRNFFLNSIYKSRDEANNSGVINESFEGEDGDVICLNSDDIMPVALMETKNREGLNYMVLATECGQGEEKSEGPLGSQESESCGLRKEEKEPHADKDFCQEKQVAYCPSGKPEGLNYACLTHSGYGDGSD
Sequence of Serine/threonine-protein kinase PLK2 (Homo sapiens) (Q9NYY3 whole entry, looked up): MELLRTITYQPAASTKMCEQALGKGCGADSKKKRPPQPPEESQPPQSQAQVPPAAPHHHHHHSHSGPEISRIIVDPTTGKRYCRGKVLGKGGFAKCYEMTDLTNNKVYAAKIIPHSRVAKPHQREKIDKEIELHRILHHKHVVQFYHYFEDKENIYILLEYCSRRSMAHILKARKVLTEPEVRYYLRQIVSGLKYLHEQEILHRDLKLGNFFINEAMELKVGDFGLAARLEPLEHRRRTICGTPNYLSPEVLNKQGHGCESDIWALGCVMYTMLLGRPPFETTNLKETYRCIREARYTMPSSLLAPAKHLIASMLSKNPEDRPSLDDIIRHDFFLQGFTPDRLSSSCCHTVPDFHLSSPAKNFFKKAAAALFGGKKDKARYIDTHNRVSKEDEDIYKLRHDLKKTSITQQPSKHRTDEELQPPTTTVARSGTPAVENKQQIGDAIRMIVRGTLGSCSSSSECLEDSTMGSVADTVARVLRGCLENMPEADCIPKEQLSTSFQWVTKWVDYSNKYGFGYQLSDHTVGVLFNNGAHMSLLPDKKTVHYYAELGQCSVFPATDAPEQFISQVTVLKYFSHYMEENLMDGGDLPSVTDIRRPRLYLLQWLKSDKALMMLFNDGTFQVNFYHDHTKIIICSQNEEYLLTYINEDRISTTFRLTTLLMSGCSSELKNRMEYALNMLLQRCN
Sequence of Mitogen-activated protein kinase kinase kinase 3 (Q99759 whole entry): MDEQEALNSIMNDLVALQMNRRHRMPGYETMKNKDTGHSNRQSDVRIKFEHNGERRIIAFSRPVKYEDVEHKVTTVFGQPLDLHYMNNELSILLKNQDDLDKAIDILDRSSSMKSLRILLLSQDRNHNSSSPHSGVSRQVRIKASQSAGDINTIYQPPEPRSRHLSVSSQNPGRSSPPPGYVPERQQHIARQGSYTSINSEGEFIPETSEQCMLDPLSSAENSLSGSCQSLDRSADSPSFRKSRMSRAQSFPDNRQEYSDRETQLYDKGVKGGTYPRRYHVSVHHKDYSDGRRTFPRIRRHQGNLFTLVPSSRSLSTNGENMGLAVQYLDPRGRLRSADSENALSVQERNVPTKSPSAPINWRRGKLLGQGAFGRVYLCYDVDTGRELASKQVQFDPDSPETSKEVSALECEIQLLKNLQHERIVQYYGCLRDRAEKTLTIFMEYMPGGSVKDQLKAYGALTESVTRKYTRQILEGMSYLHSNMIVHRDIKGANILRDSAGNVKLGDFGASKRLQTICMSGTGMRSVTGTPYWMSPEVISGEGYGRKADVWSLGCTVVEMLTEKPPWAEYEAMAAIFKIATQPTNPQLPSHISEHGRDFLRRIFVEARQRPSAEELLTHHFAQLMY
Sequence of Ephrin type-A receptor 8 (Homo sapiens) (P29322 whole entry): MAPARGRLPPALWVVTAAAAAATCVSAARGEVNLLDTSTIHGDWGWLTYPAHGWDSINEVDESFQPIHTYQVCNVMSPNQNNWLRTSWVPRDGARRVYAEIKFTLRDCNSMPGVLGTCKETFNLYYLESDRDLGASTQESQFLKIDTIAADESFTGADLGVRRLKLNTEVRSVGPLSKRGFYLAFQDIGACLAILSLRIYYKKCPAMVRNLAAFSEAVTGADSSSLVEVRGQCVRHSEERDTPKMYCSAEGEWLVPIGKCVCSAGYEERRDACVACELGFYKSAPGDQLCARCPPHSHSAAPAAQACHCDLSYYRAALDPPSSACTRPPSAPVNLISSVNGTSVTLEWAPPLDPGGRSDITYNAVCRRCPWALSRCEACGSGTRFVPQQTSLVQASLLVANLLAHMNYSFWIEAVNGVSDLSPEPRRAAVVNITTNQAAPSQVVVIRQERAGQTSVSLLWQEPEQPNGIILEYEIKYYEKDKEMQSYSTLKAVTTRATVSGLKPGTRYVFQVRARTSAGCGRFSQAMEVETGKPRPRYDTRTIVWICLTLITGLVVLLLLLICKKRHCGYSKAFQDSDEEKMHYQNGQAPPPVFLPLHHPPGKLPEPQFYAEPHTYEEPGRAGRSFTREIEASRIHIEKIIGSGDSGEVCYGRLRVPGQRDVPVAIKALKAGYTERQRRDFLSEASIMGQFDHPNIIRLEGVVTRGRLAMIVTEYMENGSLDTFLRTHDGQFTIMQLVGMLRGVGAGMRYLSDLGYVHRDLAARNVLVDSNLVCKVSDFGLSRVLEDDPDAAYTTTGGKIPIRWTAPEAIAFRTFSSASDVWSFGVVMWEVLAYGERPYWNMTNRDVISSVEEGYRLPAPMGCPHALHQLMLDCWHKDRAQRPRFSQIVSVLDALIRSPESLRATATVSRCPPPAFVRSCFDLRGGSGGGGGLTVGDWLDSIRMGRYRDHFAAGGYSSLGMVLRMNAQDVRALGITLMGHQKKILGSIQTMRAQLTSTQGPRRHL

O=C(Nc1nc2cccc(-c3ccc(CN4CCS(=O)(=O)CC4)cc3)n2n1)C1CC1 [FILGOTINIB]
inhibition [1]: 17%
inhibition [2]: -5%
inhibition [3]: -10%
inhibition [4]: 26%
inhibition [5]: 1%
inhibition [6]: -5%
inhibition [7]: 5%
IC50 [8]: 338 nM
IC50 [9]: 274 nM
IC50 [10]: 489 nM
inhibition [11]: 0%
IC50 [12]: > 10000 nM
IC50 [13]: > 10000 nM
IC50 [14]: > 10000 nM
inhibition [15]: 7%
inhibition [16]: 13%
inhibition [17]: -1%
inhibition [18]: 3%
inhibition [19]: -7%
inhibition [20]: 1%
inhibition [21]: -7%
inhibition [22]: -10%
inhibition [23]: 9%
IC50 [24]: > 10000 nM
inhibition [25]: -9%
inhibition [26]: -10%
inhibition [27]: 0%
inhibition [28]: -8%
IC50 [29]: 1790 nM
inhibition [30]: 5%
AUC [31]: 1890 ng·h/mL
AUC [32]: 739 ng·h/mL
Vd [33]: 1.8 L/kg
inhibition (Rattus norvegicus): Active
half-life [34]: ~4 h
Activity (Mus musculus [35]): Active
Activity (Mus musculus [36]): Active
Activity (Mus musculus [37]): Active
Activity (Mus musculus [38]): 123 ng/mL
